Test results published in ChEMBL document CHEMBL3046266, “Synthesis of curcumin and ethylcurcumin bioconjugates as potential antitumor agents” (Med Chem Res, 2012).
pIC50: −log10 of the molar value. Calls of active or inactive are those of the source. No cut-off for these calls is given here.

Columns and labels:
[1] = tested on: BT-549; test: Cytotoxicity against Homo sapiens (human) BT549 cells up to 25 uM by neutral red staining; type: functional, cell-based
[2] = tested on: SK-MEL; test: Cytotoxicity against Homo sapiens (human) SK-MEL cells up to 25 uM by neutral red staining; type: functional, cell-based
[3] = tested on: KB; test: Cytotoxicity against Homo sapiens (human) KB cells by neutral red staining; type: functional, cell-based
[4] = target: T1, DNA topoisomerase 1 (Homo sapiens) (UniProt P11387); test: Inhibition of Homo sapiens (human) topoisomerase 1 assessed as relaxation of supercoiled DNA up to 25 uM by agarose gel electrophoresis
T1 sequence (whole entry): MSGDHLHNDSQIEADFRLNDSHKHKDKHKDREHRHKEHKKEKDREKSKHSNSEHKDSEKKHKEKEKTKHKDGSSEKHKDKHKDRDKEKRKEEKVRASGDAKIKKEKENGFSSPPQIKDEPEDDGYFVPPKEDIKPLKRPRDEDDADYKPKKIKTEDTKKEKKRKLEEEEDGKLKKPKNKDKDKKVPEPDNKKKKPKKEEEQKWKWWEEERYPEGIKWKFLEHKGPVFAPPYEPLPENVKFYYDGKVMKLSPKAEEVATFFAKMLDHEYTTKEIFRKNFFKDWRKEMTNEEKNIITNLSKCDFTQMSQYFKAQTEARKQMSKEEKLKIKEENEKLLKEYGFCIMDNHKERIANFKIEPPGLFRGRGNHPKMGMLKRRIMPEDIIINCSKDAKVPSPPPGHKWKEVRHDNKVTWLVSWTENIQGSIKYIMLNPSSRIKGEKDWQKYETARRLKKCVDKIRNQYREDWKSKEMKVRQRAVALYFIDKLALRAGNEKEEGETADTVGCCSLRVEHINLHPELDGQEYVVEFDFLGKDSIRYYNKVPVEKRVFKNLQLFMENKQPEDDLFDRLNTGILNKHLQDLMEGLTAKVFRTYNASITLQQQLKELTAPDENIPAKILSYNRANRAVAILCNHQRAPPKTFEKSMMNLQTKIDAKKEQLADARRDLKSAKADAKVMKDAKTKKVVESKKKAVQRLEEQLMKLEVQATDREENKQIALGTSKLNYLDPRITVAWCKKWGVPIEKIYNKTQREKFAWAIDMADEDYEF

[5] = target: DNA topoisomerase 2-alpha (Homo sapiens, UniProt P11388); test: Inhibition of Homo sapiens (human) topoisomerase 2 assessed as decatenation of KDNA by agarose gel electrophoresis
Sequence of DNA topoisomerase 2-alpha (P11388 whole entry): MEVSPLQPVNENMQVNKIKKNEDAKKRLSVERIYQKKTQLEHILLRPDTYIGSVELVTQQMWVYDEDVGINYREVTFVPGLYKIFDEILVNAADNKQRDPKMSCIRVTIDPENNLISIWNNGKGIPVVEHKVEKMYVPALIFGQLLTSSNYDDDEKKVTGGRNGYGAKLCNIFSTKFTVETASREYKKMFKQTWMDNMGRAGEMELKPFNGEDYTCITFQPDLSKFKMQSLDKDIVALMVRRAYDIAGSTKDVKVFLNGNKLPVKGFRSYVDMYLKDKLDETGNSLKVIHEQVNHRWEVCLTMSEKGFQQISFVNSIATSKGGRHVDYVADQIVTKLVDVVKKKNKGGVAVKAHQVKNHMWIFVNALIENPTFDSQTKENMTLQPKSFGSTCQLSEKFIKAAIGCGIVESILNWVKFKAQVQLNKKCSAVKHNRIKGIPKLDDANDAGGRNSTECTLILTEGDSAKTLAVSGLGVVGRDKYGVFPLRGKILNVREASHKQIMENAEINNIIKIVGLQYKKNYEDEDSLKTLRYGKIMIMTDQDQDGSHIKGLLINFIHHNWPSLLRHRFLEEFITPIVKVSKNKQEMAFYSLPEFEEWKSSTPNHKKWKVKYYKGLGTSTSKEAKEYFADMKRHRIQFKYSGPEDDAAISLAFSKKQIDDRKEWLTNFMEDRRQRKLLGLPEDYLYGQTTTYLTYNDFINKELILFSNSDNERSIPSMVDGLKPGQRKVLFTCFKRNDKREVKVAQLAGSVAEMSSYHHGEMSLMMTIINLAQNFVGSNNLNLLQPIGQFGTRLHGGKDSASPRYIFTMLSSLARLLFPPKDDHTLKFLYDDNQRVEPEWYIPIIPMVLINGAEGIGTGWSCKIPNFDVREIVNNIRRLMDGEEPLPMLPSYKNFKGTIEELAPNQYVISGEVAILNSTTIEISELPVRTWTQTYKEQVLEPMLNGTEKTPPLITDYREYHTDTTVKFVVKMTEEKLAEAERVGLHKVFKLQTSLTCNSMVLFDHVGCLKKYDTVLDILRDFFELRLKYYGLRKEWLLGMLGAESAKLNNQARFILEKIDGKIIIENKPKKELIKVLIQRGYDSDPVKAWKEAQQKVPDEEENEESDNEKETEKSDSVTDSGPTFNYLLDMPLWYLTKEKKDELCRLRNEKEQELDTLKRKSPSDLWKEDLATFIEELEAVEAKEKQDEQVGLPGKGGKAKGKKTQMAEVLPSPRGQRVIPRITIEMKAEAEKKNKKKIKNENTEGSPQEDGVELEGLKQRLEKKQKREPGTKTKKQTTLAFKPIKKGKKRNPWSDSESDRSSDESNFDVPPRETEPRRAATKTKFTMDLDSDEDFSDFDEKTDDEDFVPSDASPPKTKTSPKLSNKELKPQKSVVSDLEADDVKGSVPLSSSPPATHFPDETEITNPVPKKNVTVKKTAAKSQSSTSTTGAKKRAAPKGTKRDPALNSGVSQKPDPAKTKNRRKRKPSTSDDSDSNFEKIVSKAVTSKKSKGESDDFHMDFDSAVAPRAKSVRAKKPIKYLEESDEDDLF

[6] = target: T1, DNA topoisomerase 1 (Homo sapiens); test: Inhibition of Homo sapiens (human) topoisomerase 1 assessed as production of nicked DNA up to 25 uM by agarose gel electrophoresis
[7] = tested on: LLC-PK1; test: Cytotoxicity against Sus scrofa (pig) LLC-PK1 cells up to 25 uM by neutral red staining; type: cell-based
[8] = tested on: Vero; test: Cytotoxicity against Chlorocebus aethiops (African green monkey) Vero cells up to 25 uM by neutral red staining; type: cell-based; conditions: chlorocebus sabaeus
[9] = tested on: SK-OV-3; test: Cytotoxicity against Homo sapiens (human) SKOV3 cells up to 25 uM by neutral red staining; type: functional, cell-based
[10] = tested on: KB; test: Cytotoxicity against Homo sapiens (human) KB cells up to 25 uM by neutral red staining; type: functional, cell-based
[11] = tested on: SK-MEL; test: Cytotoxicity against Homo sapiens (human) SK-MEL cells by neutral red staining; type: functional, cell-based
[12] = tested on: BT-549; test: Cytotoxicity against Homo sapiens (human) BT549 cells by neutral red staining; type: functional, cell-based
[13] = tested on: LLC-PK1; test: Cytotoxicity against Sus scrofa (pig) LLC-PK1 cells by neutral red staining; type: cell-based

inhibition [4]	pIC50 [5]	inhibition [6]	SMILES	Activity [1]	Activity [2]	pIC50 [3]	Activity [7]	Activity [8]	Activity [9]	Activity [10]	pIC50 [11]	pIC50 [12]	pIC50 [13]
inactive	5.52	inactive	CCCCCCC(=O)Oc1ccc(/C=C/C(=O)CC(=O)/C=C/c2ccc(OC(=O)CCCCCC)c(OCC)c2)cc1OCC [DI-O-HEPTANOYLETHYLCURCUMIN]	inactive	inactive		Non-toxic	Non-toxic	inactive	inactive			
inactive	5.10	inactive	COc1cc(/C=C/C(=O)CC(=O)/C=C/c2ccc(OC(=O)c3cccs3)c(OC)c2)ccc1OC(=O)c1cccs1 [DI-O-(2-THIENOYL)CURCUMIN]	inactive	inactive		Non-toxic	Non-toxic	inactive	inactive			
inactive	4.82	inactive	COc1cc(/C=C/C(=O)CC(=O)/C=C/c2ccc(O)c(OC)c2)ccc1O [CURCUMIN]			< 4.60	Non-toxic	Non-toxic	inactive		4.86	4.98	
inactive	5.35	inactive	COc1cc(/C=C/C(=O)CC(=O)/C=C/c2ccc(OC(=O)C34CC5CC(CC(C5)C3)C4)c(OC)c2)ccc1OC(=O)C12CC3CC(CC(C3)C1)C2 [DI-O-ADAMANTOYLCURCUMIN]	inactive	inactive		Non-toxic	Non-toxic	inactive	inactive			
inactive	5.12	inactive	CCOc1cc(/C=C/C(=O)CC(=O)/C=C/c2ccc(O)c(OCC)c2)ccc1O [ETHYL CURCUMIN]			< 4.60	Non-toxic	Non-toxic	inactive		4.80	4.74	
inactive	4.64	inactive	CCOc1cc(/C=C/C(=O)CC(=O)/C=C/c2ccc(OC(=O)c3cccs3)c(OCC)c2)ccc1OC(=O)c1cccs1 [DI-O-(2-THIENOYL)ETHYLCURCUMIN]	inactive	inactive		Non-toxic	Non-toxic	inactive	inactive			
inactive	4.70	inactive	CCOc1cc(/C=C/C(=O)CC(=O)/C=C/c2ccc(OC(=O)CCCl)c(OCC)c2)ccc1OC(=O)CCCl [DI-O-CHLOROPROPIONYLETHYL CURCUMIN]	inactive	inactive		Non-toxic	Non-toxic	inactive	inactive			
inactive	5.54	inactive	CCCCCCC(=O)Oc1ccc(/C=C/C(=O)CC(=O)/C=C/c2ccc(OC(=O)CCCCCC)c(OC)c2)cc1OC [DI-O-HEPTANOYLCURCUMIN]	inactive	inactive		Non-toxic	Non-toxic	inactive	inactive			

Second part, the compound before the results:

SMILES	inhibition [4]	pIC50 [5]	inhibition [6]	Activity [1]	Activity [2]	pIC50 [3]	Activity [7]	Activity [8]	Activity [9]	Activity [10]	pIC50 [11]	pIC50 [12]	pIC50 [13]
CCOc1cc(/C=C/C(=O)CC(=O)/C=C/c2ccc(OC(=O)CCNC34CC5CC(CC(C5)C3)C4)c(OCC)c2)ccc1OC(=O)CCNC12CC3CC(CC(C3)C1)C2	inactive	5.68	inactive	inactive	inactive	4.82	Non-toxic	Non-toxic	inactive				
CCOc1cc(/C=C/C(=O)CC(=O)/C=C/c2ccc(OC(=O)CCl)c(OCC)c2)ccc1OC(=O)CCl [DI-O-CHLOROACETYLETHYL CURCUMIN]	inactive	4.92	inactive	inactive	inactive		Non-toxic	Non-toxic	inactive	inactive			
COc1ccc2nc(NCCC(=O)Oc3ccc(/C=C/C(=O)CC(=O)/C=C/c4ccc(OC(=O)CCNc5nc6ccc(OC)cc6s5)c(OC)c4)cc3OC)sc2c1	inactive	4.72	inactive			< 4.60	Non-toxic	Non-toxic	inactive		4.62	4.62	
COc1cc(/C=C/C(=O)CC(=O)/C=C/c2ccc(OC(=O)CNCCCl)c(OC)c2)ccc1OC(=O)CNCCCl	inactive	6.46	inactive	inactive	inactive		Non-toxic	Non-toxic	inactive	inactive			
COc1cc(/C=C/C(=O)CC(=O)/C=C/c2ccc(OC(=O)CCl)c(OC)c2)ccc1OC(=O)CCl [DI-O-CHLOROACETYLCURCUMIN]	inactive	4.70	inactive			< 4.60	Non-toxic	Non-toxic	inactive		4.90	5.00	
COc1cc(/C=C/C(=O)CC(=O)/C=C/c2ccc(OC(=O)CCNC34CC5CC(CC(C5)C3)C4)c(OC)c2)ccc1OC(=O)CCNC12CC3CC(CC(C3)C1)C2	inactive	4.74	inactive			< 4.60	Non-toxic	Non-toxic	inactive		4.73	4.69	
CCOc1cc(/C=C/C(=O)CC(=O)/C=C/c2ccc(OC(=O)CNCCN(C)C)c(OCC)c2)ccc1OC(=O)CNCCN(C)C	inactive	5.40	inactive		inactive			Non-toxic	inactive	inactive		4.94	4.66
COc1ccc2nc(NCC(=O)Oc3ccc(/C=C/C(=O)CC(=O)/C=C/c4ccc(OC(=O)CNc5nc6ccc(OC)cc6s5)c(OC)c4)cc3OC)sc2c1	inactive	4.82	inactive			4.64		Non-toxic	inactive		4.82	4.74	4.65
COc1cc(/C=C/C(=O)CC(=O)/C=C/c2ccc(OC(=O)CNC34CC5CC(CC(C5)C3)C4)c(OC)c2)ccc1OC(=O)CNC12CC3CC(CC(C3)C1)C2	inactive	5.40	inactive			< 4.60	Non-toxic	Non-toxic	inactive		4.82	4.71	
CCOc1cc(/C=C/C(=O)CC(=O)/C=C/c2ccc(OC(=O)CCNCCN(CC)CC)c(OCC)c2)ccc1OC(=O)CCNCCN(CC)CC	inactive	5.15	inactive	inactive	inactive		Non-toxic	Non-toxic	inactive	inactive			
CCOc1cc(/C=C/C(=O)CC(=O)/C=C/c2ccc(OC(=O)CNC34CC5CC(CC(C5)C3)C4)c(OCC)c2)ccc1OC(=O)CNC12CC3CC(CC(C3)C1)C2	inactive	5.47	inactive	inactive	inactive		Non-toxic	Non-toxic	inactive	inactive			
